Results on seven molecules are retold here after PubChem BioAssay (NCI).

Where “and” joins values, the source holds several entries; their conditions need not be identical. Identical values can stand only once.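 Each compound was tested at five concentrations against cells in 96-well plates for 48 hours. Abbreviation: GI50, concentration required for 50% inhibition of growth. TGI denotes the concentration required for complete inhibition of growth.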 A value given as a limit tells only on which side of the number the result lay.

Test systems include DU-145 prostate; K-562 leukemia; NCI-H522 lung; OVCAR-3 ovarian; OVCAR-4 ovarian; OVCAR-5 ovarian; OVCAR-8 ovarian; SK-MEL-28 melanoma; SR leukemia; U251 CNS.
Common to all, as to assay: growth of human tumour cells (NCI), 48 h

Turning to `Nc1ccn([C@@H]2C(F)=C(CO)[C@@H](O)[C@H]2O)c(=O)n1`, the GI50 was 0.445 µM with DU-145 prostate; 0.781 µM in the experiment with K-562 leukemia; 0.45 µM with NCI-H522 lung; 4.17 µM in the experiment with OVCAR-3 ovarian; 23.2 µM in the experiment on OVCAR-4 ovarian; 12.2 µM in the experiment on OVCAR-5 ovarian. Further, the GI50 with OVCAR-8 ovarian is 0.551 µM; in the experiment with SK-MEL-28 melanoma, 6.91 µM; in the experiment with SR leukemia, 0.443 µM; in the experiment on U251 CNS, 2.78 µM. Besides, the TGI in the experiment on DU-145 prostate, in the experiment with K-562 leukemia, in the experiment with NCI-H522 lung, in the experiment on OVCAR-3 ovarian, in the experiment with OVCAR-4 ovarian and in the experiment with OVCAR-5 ovarian was above 100 µM in each case. For the same molecule, the TGI with OVCAR-8 ovarian, in the experiment with SK-MEL-28 melanoma, with SR leukemia and with U251 CNS was above 100 µM each time.

For `CC(C)(CO)N=Cc1ccccc1[O-].CC(C)(CO)N=Cc1ccccc1[O-].[Co+2]`, the GI50 in the experiment on DU-145 prostate is 42.1 µM; in the experiment on K-562 leukemia it was 47.3 µM; in the experiment with NCI-H522 lung, 30.4 µM; with OVCAR-3 ovarian, 36.3 µM; in the experiment with OVCAR-4 ovarian, 71.9 µM; with OVCAR-5 ovarian, above 79.7 µM. Further, the GI50 with OVCAR-8 ovarian is above 100 µM; in the experiment with SK-MEL-28 melanoma, 58.6 µM; with SR leukemia, 14.4 µM; in the experiment with U251 CNS it was 74.9 µM. The TGI with DU-145 prostate is above 100 µM; in the experiment with K-562 leukemia, above 100 µM; in the experiment with NCI-H522 lung, 90.5 µM; with OVCAR-3 ovarian it was above 100 µM; in the experiment on OVCAR-4 ovarian, above 100 µM; in the experiment with OVCAR-5 ovarian, above 100 µM. The TGI is above 100 µM in the experiment on OVCAR-8 ovarian, above 100 µM with SK-MEL-28 melanoma, above 90.4 µM with SR leukemia and above 100 µM in the experiment with U251 CNS.

With `CN(C)C/C=C/C(=O)Nc1ccc(C(=O)N2CCC[C@@H](Nc3ncc(Cl)c(-c4c[nH]c5ccccc45)n3)C2)cc1`, the GI50 in the experiment with DU-145 prostate is 0.215 µM; in the experiment on K-562 leukemia it was 0.0863 µM; in the experiment on NCI-H522 lung it was 0.0344 µM; in the experiment with OVCAR-3 ovarian it was 0.0644 µM; in the experiment on OVCAR-4 ovarian it was 0.0664 µM; in the experiment with OVCAR-5 ovarian, 0.328 µM. Moreover, the GI50 is 0.406 µM in the experiment on OVCAR-8 ovarian, 0.121 µM in the experiment on SK-MEL-28 melanoma, 0.0337 µM in the experiment with SR leukemia and 0.306 µM in the experiment with U251 CNS. Also, the TGI was 11.1 µM in the experiment with DU-145 prostate; above 100 µM in the experiment with K-562 leukemia; 0.228 µM with NCI-H522 lung; 0.99 µM in the experiment with OVCAR-3 ovarian; 9.74 µM in the experiment with OVCAR-4 ovarian; 11.6 µM with OVCAR-5 ovarian. Moreover, the TGI in the experiment on OVCAR-8 ovarian was found to be 11.8 µM; in the experiment on SK-MEL-28 melanoma, 0.942 µM; in the experiment with SR leukemia, 1.03 µM; with U251 CNS, 10 µM.

Consider `O=C(Nc1cc(S(=O)(=O)c2ccc(Cl)cc2)ccc1Cl)c1cc(I)cc(I)c1O`, for which the GI50 is 17.2 µM with DU-145 prostate; 16 µM in the experiment on K-562 leukemia; 11.8 µM in the experiment with NCI-H522 lung; 17 µM in the experiment on OVCAR-3 ovarian; 17.2 µM in the experiment with OVCAR-4 ovarian; 18.3 µM in the experiment with OVCAR-5 ovarian. Besides, the GI50 is 18.6 µM in the experiment with OVCAR-8 ovarian, 9.38 µM with SK-MEL-28 melanoma, 26 µM with SR leukemia and 15.3 µM in the experiment on U251 CNS. Moreover, the TGI in the experiment on DU-145 prostate turned out to be 30.9 µM; in the experiment on K-562 leukemia, 40.9 µM; with NCI-H522 lung, 26.6 µM; in the experiment on OVCAR-3 ovarian, 34.2 µM; in the experiment with OVCAR-4 ovarian, 33.5 µM; in the experiment with OVCAR-5 ovarian it was 38.2 µM. Also, the TGI in the experiment with OVCAR-8 ovarian was determined as 41.7 µM; with SK-MEL-28 melanoma, 24.6 µM; in the experiment with SR leukemia, 60.1 µM; with U251 CNS it was 30.8 µM.

Regarding `Cn1cnc([N+](=O)[O-])c1Sc1nc(N)nc2nc[nH]c12`, the GI50 is 2.91 µM in the experiment on DU-145 prostate; 4.2 µM with K-562 leukemia; 3.56 µM with NCI-H522 lung; 4.65 µM in the experiment with OVCAR-3 ovarian; 4.38 µM in the experiment on OVCAR-4 ovarian; 4.48 µM in the experiment with OVCAR-5 ovarian. Also, the GI50 in the experiment on OVCAR-8 ovarian is 3.68 µM; with SK-MEL-28 melanoma, above 42.5 µM; in the experiment with SR leukemia, 0.682 µM; in the experiment on U251 CNS it was 23 µM. The TGI was above 100 µM in the experiment on DU-145 prostate; above 100 µM in the experiment on K-562 leukemia; above 90.5 µM in the experiment on NCI-H522 lung; above 100 µM in the experiment on OVCAR-3 ovarian; above 100 µM in the experiment with OVCAR-4 ovarian; above 100 µM in the experiment on OVCAR-5 ovarian. Besides, the TGI in the experiment on OVCAR-8 ovarian, with SK-MEL-28 melanoma, in the experiment on SR leukemia and with U251 CNS was above 100 µM in each case.

As for `CC[C@@]1(O)C(=O)OCc2c1cc1n(c2=O)Cc2cc3c(N)cccc3nc2-1`, the GI50 is 0.004 µM in the experiment on DU-145 prostate; 0.0277 µM in the experiment with K-562 leukemia; 0.0234 µM with NCI-H522 lung; 0.0763 µM in the experiment with OVCAR-5 ovarian; 0.0403 µM in the experiment on OVCAR-8 ovarian; 0.00165 µM in the experiment with SR leukemia. The GI50 with U251 CNS is 0.00889 µM. The TGI in the experiment on DU-145 prostate was below 0.0299 µM; with K-562 leukemia, above 100 µM; with NCI-H522 lung, 1.35 µM; in the experiment with OVCAR-3 ovarian it was 1.42 µM; in the experiment with OVCAR-4 ovarian, 3.62 µM; in the experiment on OVCAR-5 ovarian, 1.1 µM. Moreover, the results for the TGI in the experiment on OVCAR-8 ovarian, with SK-MEL-28 melanoma and in the experiment with U251 CNS were 2.51 µM, 16.3 µM and 1.55 µM, respectively.

With `Cc1cc(NC(=O)NC(=O)c2ccccc2N(C)C)ccc1Oc1ncc(Br)cn1`, the TGI with DU-145 prostate is above 63.1 µM; in the experiment on K-562 leukemia, 27.3 µM; with NCI-H522 lung it was 0.408 µM and 0.587 µM; in the experiment with OVCAR-3 ovarian, 11.1 µM; with OVCAR-4 ovarian, above 68.1 µM; in the experiment on OVCAR-5 ovarian, above 67.5 µM. Further, the TGI with OVCAR-8 ovarian was above 68.1 µM; in the experiment on SK-MEL-28 melanoma, above 63.1 µM; in the experiment on U251 CNS, 39.8 µM. The GI50 in the experiment with K-562 leukemia was 0.21 µM; with NCI-H522 lung, 0.164 µM; in the experiment with OVCAR-4 ovarian, 3.45 µM; in the experiment with OVCAR-5 ovarian, 2.61 µM; with OVCAR-8 ovarian, 0.614 µM; with SR leukemia, 0.135 µM. In the experiment on U251 CNS, the GI50 was 0.436 µM.
